The test system of assay [1] is A/PR/8/34 influenza virus. The experiment in a line: microbe, parasite or virus in culture. The format is cell-based.
For assay [2], the system named is influenza A virus (A/PR/8/34). The experiment in a line: microbe, parasite or virus in culture. The format is cell-based.
The mark [3] stands for this setting: Influenza A virus, PR/8, MDCK, MDCK cells infected with A/PR/8/34, replication of influenza virus (viral RNA, bDNA), class symbols, read-out: EC50 (mean all).
Setting [4] is: Influenza A virus, PR/8, MDCK, MDCK cells infected with A/PR/8/34, survival of infected cells, class symbols, read-out: IC50 (mean all).
The mark [5] stands for this setting: mean all, bDNA viral RNA in MDCK cells infected with A/PR/8/34, read-out: EC50.
[6] abbreviates: mean all, MDCK cells infected with A/PR/8/34, cell protection (CPE), read-out: IC50.
The mark [7] stands for this setting: Influenza A virus, PR/8, MDCK, MDCK cells infected with A/PR/8/34, bDNA viral RNA, read-out: EC50 (mean all).
Setting [8] is: Influenza A virus, PR/8, MDCK, MDCK cells infected with A/PR/8/34, cell protection (CPE), read-out: IC50 (mean all).

SMILES strings stand for the structures. Read-outs that look alike come from different tables or passages of the source. Where only a bound is given, the exact number is not on record here.

`O=C(O)[C@@H]1CCCC[C@@H]1Nc1nc(-c2c[nH]c3ncc(Cl)cc23)ncc1F` (relative stereo) [Compound 559, Cis-2-(2-(5-chloro-1H-pyrrolo[2,3-b]pyridin-3-yl)-5-fluoropyrimidin-4-ylamino)cyclohexanecarboxylic acid]: in assay [1] (setting [3]), the EC50 was < 5 µM. Further, the IC50 in assay [2] (setting [4]) is < 5 µM.

`CN(C)C(=O)N[C@@H]1CCCC[C@H]1CNc1nc(-c2c[nH]c3ncc(Cl)cc23)ncc1F` (relative stereo) [Compound 564, 3-(trans-2-((2-(5-chloro-1H-pyrrolo[2,3-b]pyridin-3-yl)-5-fluoropyrimidin-4-ylamino)methyl)cyclohexyl)-1,1-dimethylurea]: in assay [1] (setting [3]), the EC50 was < 5 µM. Also, the IC50 in assay [2] (setting [4]) is > 10 µM.

Turning to `CC[C@@]1(C(=O)O)CCCC[C@H]1Nc1nc(-c2c[nH]c3ncc(Cl)cc23)ncc1F` (relative stereo) [Compound 586, trans-2-(2-(5-chloro-1H-pyrrolo[2,3-b]pyridin-3-yl)-5-fluoropyrimidin-4-ylamino)-1-ethylcyclohexanecarboxylic acid], the EC50 in assay [1] ([…], replication of influenza virus (viral RNA, bDNA), class symbols, read-out: EC50 (mean all)) was < 5 µM. In addition, in assay [2] (read-out: IC50 (mean all)), the IC50 is < 5 µM.

Consider `CC1(O)CCCCC1Nc1nc(-c2c[nH]c3ncc(Cl)cc23)ncc1F` (single isomer, unassigned) [Compound 563, 2-(2-(5-chloro-1H-pyrrolo[2,3-b]pyridin-3-yl)-5-fluoropyrimidin-4-ylamino)-1-methylcyclohexanol], for which, in assay [1] (setting [3]), the EC50 is < 5 µM. The IC50 in assay [2] (setting [4]) is < 5 µM.

Take `CCNC(=O)OC1CCCC(Nc2nc(-c3c[nH]c4ncc(Cl)cc34)ncc2F)C1` (single isomer, unassigned) [Compound 609]: the EC50 in assay [1] (bDNA assay, A/PR/8/34 influenza virus replication in MDCK cells, class symbols, read-out: EC50 (mean all)) is < 5 µM. In addition, in assay [2] (CPE assay, A/PR/8/34 infected MDCK cells, class symbols, read-out: IC50 (mean all)), the IC50 was < 5 µM.

As to `CCC1(O)CCCC(Nc2nc(-c3c[nH]c4ncc(Cl)cc34)ncc2F)C1` (single isomer, unassigned) [Compound 709], in assay [1] (setting [5]), the EC50 is < 5 µM. The IC50 in assay [2] (setting [6]) is < 5 µM.

In the case of `CCC1(O)CCCC(Nc2nc(-c3c[nH]c4ncc(Cl)cc34)ncc2F)C1` (single isomer, unassigned) [Compound 710], the EC50 in assay [1] (setting [5]) was < 5 µM. The IC50 in assay [2] (setting [6]) is < 5 µM.

Consider `CCNC(=O)OC1(C)CCCC(Nc2nc(-c3c[nH]c4ncc(Cl)cc34)ncc2F)C1` (single isomer, unassigned) [Compound 722], for which, in assay [1] (setting [5]), the EC50 was < 5 µM. In assay [2] (setting [6]), the IC50 is < 5 µM.

`O=C(NC1CC2CC(Nc3nc(-c4c[nH]c5ncc(F)cc45)ncc3F)C1C2)N1CCCC1` (single isomer, unassigned) [Compound 1045, N-[6-[[5-fluoro-2-(5-fluoro-1H-pyrrolo[2,3-b]pyridin-3-yl)pyrimidin-4-yl]amino]norbornan-2-yl]pyrrolidine-1-carboxamide]: in assay [1] (Influenza A virus, PR/8, 30 h, HA(−) 30 hr, A/PR/8, bDNA, mean all, read-out: Cell Influenza HA(−) 30 hr A/PR/8 bDNA:bDNA EC50 uM(Mean (All))), the EC50 is < 5 µM. For the same molecule, the IC50 in assay [2] (Influenza A virus, PR/8, MDCK, MDCK cells, A/PR/8/34, ATP readout, mean all, read-out: Cell Flu, MDCK protection, ATP (All: IC50: uM)(Mean (All))) was < 5 µM.

With `C[C@]1(C(=O)O)CCCC[C@@H]1Nc1nc(-c2c[nH]c3ncc(Cl)cc23)ncc1F` (stereo in doubt) [Compound 643, Trans-2-[[2-(5-chloro-1H-pyrrolo[2,3-b]pyridin-3-yl)-5-fluoro-pyrimidin-4-yl]amino]-1-methyl-cyclohexanecarboxylic acid], the EC50 in assay [1] (Influenza A virus, PR/8, MDCK, bDNA assay, A/PR/8/34 influenza virus replication in MDCK cells, class symbols, read-out: EC50 (mean all)) was < 5 µM. Moreover, the IC50 in assay [2] (Influenza A virus, PR/8, MDCK, CPE assay, A/PR/8/34 infected MDCK cells, class symbols, read-out: IC50 (mean all)) is < 5 µM.

Regarding `OC1CCCC1Nc1nc(-c2c[nH]c3ncc(Cl)cc23)ncc1F` (centres unmarked) [Compound 14, 2-(2-(5-chloro-1H-pyrrolo[2,3-b]pyridin-3-yl)-5-fluoropyrimidin-4-ylamino)cyclopentanol], the EC50 in assay [1] (setting [7]) is < 5 µM. Besides, in assay [2] (setting [8]), the IC50 lay within 5 to 20 µM.

With `CC(C)(C)OC(=O)N1CCC[C@H](CNc2nc(-c3c[nH]c4ncc(Cl)cc34)ncc2F)C1` [Compound 15, (R)-tert-butyl 3-((2-(5-chloro-1H-pyrrolo[2,3-b]pyridin-3-yl)-5-fluoropyrimidin-4-ylamino)methyl)piperidine-1-carboxylate], in assay [1] (setting [7]), the EC50 was < 5 µM. Besides, the IC50 in assay [2] (setting [8]) was in the range of 5 to 20 µM.

Take `C=CCOC(=O)N1CCC[C@@H](CNc2nc(-c3c[nH]c4ncc(Cl)cc34)ncc2F)C1` [Compound 17, (S)-allyl 3-((2-(5-chloro-1H-pyrrolo[2,3-b]pyridin-3-yl)-5-fluoropyrimidin-4-ylamino)methyl)piperidine-1-carboxylate]: in assay [1] (setting [7]), the EC50 was < 5 µM. Also, in assay [2] (setting [8]), the IC50 is 5 to 20 µM.

On to `O=C(Nc1ccsc1)N1CCC[C@@H](CNc2nc(-c3c[nH]c4ncc(Cl)cc34)ncc2F)C1` [Compound 22, (S)-3-((2-(5-chloro-1H-pyrrolo[2,3-b]pyridin-3-yl)-5-fluoropyrimidin-4-ylamino)methyl)-N-(thiophen-3-yl)piperidine-1-carboxamide], for which the EC50 in assay [1] (setting [7]) is < 5 µM. In assay [2] (setting [8]), the IC50 was < 5 µM.

`COC(=O)N1CCC[C@@H](CNc2nc(-c3c[nH]c4ncc(Cl)cc34)ncc2F)C1` [Compound 23, (S)-methyl 3-((2-(5-chloro-1H-pyrrolo[2,3-b]pyridin-3-yl)-5-fluoropyrimidin-4-ylamino)methyl)piperidine-1-carboxylate]: in assay [1] (setting [7]), the EC50 is < 5 µM. For the same molecule, in assay [2] (setting [8]), the IC50 is < 5 µM.

Take `CCOC(=O)CNC(=O)N1CCC[C@@H](CNc2nc(-c3c[nH]c4ncc(Cl)cc34)ncc2F)C1` [Compound 25, (S)-ethyl 2-(3-((2-(5-chloro-1H-pyrrolo[2,3-b]pyridin-3-yl)-5-fluoropyrimidin-4-ylamino)methyl)piperidine-1-carboxamido)ethanoate]: the EC50 in assay [1] (setting [7]) was < 5 µM. In addition, the IC50 in assay [2] (setting [8]) was < 5 µM.

In the case of `CCOC(=O)NC(=O)N1CCC[C@@H](CNc2nc(-c3c[nH]c4ncc(Cl)cc34)ncc2F)C1` [Compound 26, (S)-ethyl 3-((2-(5-chloro-1H-pyrrolo[2,3-b]pyridin-3-yl)-5-fluoropyrimidin-4-ylamino)methyl)piperidine-1-carbonylcarbamate], the EC50 in assay [1] (setting [7]) was < 5 µM. In addition, the IC50 in assay [2] (setting [8]) is < 5 µM.

As to `CC(C)NC(=O)N1CCC[C@@H](CNc2nc(-c3c[nH]c4ncc(Cl)cc34)ncc2F)C1` [Compound 27, (S)-3-((2-(5-chloro-1H-pyrrolo[2,3-b]pyridin-3-yl)-5-fluoropyrimidin-4-ylamino)methyl)-N-isopropylpiperidine-1-carboxamide], the EC50 in assay [1] (setting [7]) was < 5 µM. Besides, the IC50 in assay [2] (setting [8]) was < 5 µM.

On to `CC(C)COC(=O)N1CCC[C@@H](CNc2nc(-c3c[nH]c4ncc(Cl)cc34)ncc2F)C1` [Compound 28, (S)-isobutyl 3-((2-(5-chloro-1H-pyrrolo[2,3-b]pyridin-3-yl)-5-fluoropyrimidin-4-ylamino)methyl)piperidine-1-carboxylate], for which the EC50 in assay [1] (setting [7]) is < 5 µM. The IC50 in assay [2] (setting [8]) was > 20 µM.

Turning to `CC#CCOC(=O)N1CCC[C@@H](CNc2nc(-c3c[nH]c4ncc(Cl)cc34)ncc2F)C1` [Compound 30, (S)-but-2-ynyl 3-((2-(5-chloro-1H-pyrrolo[2,3-b]pyridin-3-yl)-5-fluoropyrimidin-4-ylamino)methyl)piperidine-1-carboxylate], in assay [1] (Influenza A virus, PR/8, MDCK, read-out: EC50 (mean all)), the EC50 was < 5 µM. For the same molecule, the IC50 in assay [2] (Influenza A virus, PR/8, MDCK, read-out: IC50 (mean all)) fell in the range of 5 to 20 µM.

Regarding `N[C@@H]1CCCC[C@H]1Nc1nc(-c2c[nH]c3ncc(Cl)cc23)ncc1C(F)(F)F` [Compound 31, (1R,2R)—N1-(2-(5-chloro-1H-pyrrolo[2,3-b]pyridin-3-yl)-5-(trifluoromethyl)pyrimidin-4-yl)cyclohexane-1,2-diamine], in assay [1] (setting [7]), the EC50 was < 5 µM. In addition, in assay [2] (setting [8]), the IC50 was < 5 µM.

On to `CCC(=O)N1CCC[C@@H](CNc2nc(-c3c[nH]c4ncc(Cl)cc34)ncc2F)C1` [Compound 32, (S)-1-(3-((2-(5-chloro-1H-pyrrolo[2,3-b]pyridin-3-yl)-5-fluoropyrimidin-4-ylamino)methyl)piperidin-1-yl)propan-1-one], for which, in assay [1] (setting [7]), the EC50 was < 5 µM. Moreover, the IC50 in assay [2] (setting [8]) was < 5 µM.

On to `CCOC(=O)N1CCC[C@@H](CNc2nc(-c3c[nH]c4ncc(Cl)cc34)ncc2F)C1` [Compound 33, (S)-ethyl 3-((2-(5-chloro-1H-pyrrolo[2,3-b]pyridin-3-yl)-5-fluoropyrimidin-4-ylamino)methyl)piperidine-1-carboxylate], for which, in assay [1] (setting [7]), the EC50 is < 5 µM. The IC50 in assay [2] (setting [8]) was < 5 µM.

Turning to `CS(=O)(=O)N1CCC[C@@H](CNc2nc(-c3c[nH]c4ncc(Cl)cc34)ncc2F)C1` [Compound 36, (S)-2-(5-chloro-1H-pyrrolo[2,3-b]pyridin-3-yl)-5-fluoro-N-((1-(methylsulfonyl)-piperidin-3-yl)methyl)pyrimidin-4-amine], the EC50 in assay [1] (setting [7]) is < 5 µM. In addition, in assay [2] (setting [8]), the half-maximal inhibitory concentration (IC50) was < 5 µM.

For the molecule `CC(=O)N1CCC[C@@H](CNc2nc(-c3c[nH]c4ncc(Cl)cc34)ncc2F)C1` [Compound 37, (S)-1-(3-((2-(5-chloro-1H-pyrrolo[2,3-b]pyridin-3-yl)-5-fluoropyrimidin-4-ylamino)methyl)piperidin-1-yl)ethanone], the EC50 in assay [1] (setting [7]) was < 5 µM. For the same molecule, in assay [2] (setting [8]), the IC50 is < 5 µM.

Broadly, the IC50 is the concentration needed to halve the response being measured.

Source of the values: patent US8829007B2 (priority 2009, dated 2014).
